Results on ten compounds are retold here after patent publication US10221138B2, “Biaryl derivatives as GPR120 agonists” (LG CHEM, LTD., priority 2013, dated 2019).

SMILES strings stand for the structures.

The target of the test is T1, hGPR120 (Homo sapiens, UniProt Q5NUL3).
T1 construct: expressed in transfected cells; host or cells: CHO-K1
T1 sequence (Q5NUL3 1-361): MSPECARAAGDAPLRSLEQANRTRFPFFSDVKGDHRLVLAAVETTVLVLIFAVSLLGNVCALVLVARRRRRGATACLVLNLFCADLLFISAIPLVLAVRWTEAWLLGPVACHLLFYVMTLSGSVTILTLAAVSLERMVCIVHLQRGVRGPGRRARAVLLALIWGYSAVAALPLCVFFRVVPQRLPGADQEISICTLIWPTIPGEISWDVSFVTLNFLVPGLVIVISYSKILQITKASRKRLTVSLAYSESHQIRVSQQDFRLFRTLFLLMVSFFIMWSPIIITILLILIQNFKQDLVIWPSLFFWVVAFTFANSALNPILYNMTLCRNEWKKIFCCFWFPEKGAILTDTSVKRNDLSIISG
The test is described as follows: Measurement of activity of GPR120 agonist (cell-based calcium fluorescence assay). The settings on record: CHO-K1 cells expressing Ga16 and hGPR120, Calcium 5 dye fluorescence; activity class; read-out: EC50. Summed up:
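CHO-K1 cells co-expressing Gα16 and hGPR120, plated 18 h, loaded with Calcium 5 dye for 1 h at 37 °C, then given serially diluted agonists (final 0.5% DMSO). Fluorescence increase expressed as relative % of the 1% DMSO-only signal.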
As for `CC#CCOc1ncccc1-c1cc(F)c(OCCCC(=O)O)c(F)c1` [Example 270, 4-[4-(2-but-2-ynyloxy-pyridin-3-yl)-2,6-difluoro-phenoxy]-butyric acid], the EC50 (in general, the concentration that produces a half-maximal response) fell in the range of 2000 to 20000 nM.
Take `O=C(O)CCCCCOc1c(F)cc(-c2cccnc2OC2CCC2)cc1F` [Example 271, 6-[4-[2-(cyclobutoxy)-3-pyridyl]-2,6-difluoro-phenoxy]hexanoic acid]: the EC50 fell in the range of 200 to 2000 nM.
For `O=C(O)CCCCCOc1c(F)cc(-c2cccnc2OCC2CCC2)cc1F` [Example 272, 6-[4-[2-(cyclobutylmethoxy)-3-pyridyl]-2,6-difluoro-phenoxy]hexanoic acid], the EC50 was < 200 nM.
On to `O=C(O)CCCCCOc1c(F)cc(-c2cccnc2OCC2CC2)cc1F` [Example 273, 6-[4-[2-(cyclopropylmethoxy)-3-pyridyl]-2,6-difluoro-phenoxy]hexanoic acid], for which the EC50 lay within 200 to 2000 nM.
With `O=C(O)CCCCCOc1c(F)cc(-c2cccnc2SC2CCC2)cc1F` [Example 274, 6-[4-(2-cyclobutylsulfanyl-3-pyridyl)-2,6-difluoro-phenoxy]hexanoic acid], the EC50 is < 200 nM.
Next, `O=C(O)CCCCCOc1c(F)cc(-c2cccnc2SC2CCCC2)cc1F` [Example 275, 6-[4-(2-cyclopentylsulfanyl-3-pyridyl)-2,6-difluoro-phenoxy]hexanoic acid]: 200 to 2000 nM; `O=C(O)CCCCCSc1c(F)cc(-c2cccnc2OC2CCCC2)cc1F` [Example 276, 6-[4-(2-cyclopentyloxy-pyridin-3-yl)-2,6-difluoro-phenylsulfanyl]-hexanoic acid]: 200 to 2000 nM.
Next, `O=C(O)CCCCCSc1c(F)cc(-c2cccnc2SC2CCCC2)cc1F` [Example 277, 6-[4-(2-cyclopentylsulfanyl-pyridin-3-yl)-2,6-difluoro-phenylsulfanyl]-hexanoic acid]: 200 to 2000 nM.
With `O=C(O)CCCCCSc1c(F)cc(-c2cccnc2SC2CCC2)cc1F` [Example 278, 6-[4-(2-cyclobutylsulfanyl-pyridin-3-yl)-2,6-difluoro-phenylsulfanyl]-hexanoic acid], the EC50 fell in the range of 200 to 2000 nM.
Turning to `CCCSc1ncccc1-c1cc(F)c(SCCCCCC(=O)O)c(F)c1` [Example 279, 6-[2,6-difluoro-4-(2-propylsulfanyl-pyridin-3-yl)-phenylsulfanyl]-hexanoic acid], the EC50 lay in the range of 200 to 2000 nM.
